Broadly, the IC50 is the concentration that gives 50% inhibition.

A value given as a limit tells only on which side of the number the result lay.

Our source for the activity and IC50 values is ChEMBL document CHEMBL2074007, “Characterization of the transport of nucleoside analog drugs by the human multidrug resistance proteins MRP4 and MRP5” (Mol Pharmacol, 2003).

One data set deals with T1, MRP4 (ABCC4) (Homo sapiens, UniProt O15439).
T1 sequence (O15439 whole entry): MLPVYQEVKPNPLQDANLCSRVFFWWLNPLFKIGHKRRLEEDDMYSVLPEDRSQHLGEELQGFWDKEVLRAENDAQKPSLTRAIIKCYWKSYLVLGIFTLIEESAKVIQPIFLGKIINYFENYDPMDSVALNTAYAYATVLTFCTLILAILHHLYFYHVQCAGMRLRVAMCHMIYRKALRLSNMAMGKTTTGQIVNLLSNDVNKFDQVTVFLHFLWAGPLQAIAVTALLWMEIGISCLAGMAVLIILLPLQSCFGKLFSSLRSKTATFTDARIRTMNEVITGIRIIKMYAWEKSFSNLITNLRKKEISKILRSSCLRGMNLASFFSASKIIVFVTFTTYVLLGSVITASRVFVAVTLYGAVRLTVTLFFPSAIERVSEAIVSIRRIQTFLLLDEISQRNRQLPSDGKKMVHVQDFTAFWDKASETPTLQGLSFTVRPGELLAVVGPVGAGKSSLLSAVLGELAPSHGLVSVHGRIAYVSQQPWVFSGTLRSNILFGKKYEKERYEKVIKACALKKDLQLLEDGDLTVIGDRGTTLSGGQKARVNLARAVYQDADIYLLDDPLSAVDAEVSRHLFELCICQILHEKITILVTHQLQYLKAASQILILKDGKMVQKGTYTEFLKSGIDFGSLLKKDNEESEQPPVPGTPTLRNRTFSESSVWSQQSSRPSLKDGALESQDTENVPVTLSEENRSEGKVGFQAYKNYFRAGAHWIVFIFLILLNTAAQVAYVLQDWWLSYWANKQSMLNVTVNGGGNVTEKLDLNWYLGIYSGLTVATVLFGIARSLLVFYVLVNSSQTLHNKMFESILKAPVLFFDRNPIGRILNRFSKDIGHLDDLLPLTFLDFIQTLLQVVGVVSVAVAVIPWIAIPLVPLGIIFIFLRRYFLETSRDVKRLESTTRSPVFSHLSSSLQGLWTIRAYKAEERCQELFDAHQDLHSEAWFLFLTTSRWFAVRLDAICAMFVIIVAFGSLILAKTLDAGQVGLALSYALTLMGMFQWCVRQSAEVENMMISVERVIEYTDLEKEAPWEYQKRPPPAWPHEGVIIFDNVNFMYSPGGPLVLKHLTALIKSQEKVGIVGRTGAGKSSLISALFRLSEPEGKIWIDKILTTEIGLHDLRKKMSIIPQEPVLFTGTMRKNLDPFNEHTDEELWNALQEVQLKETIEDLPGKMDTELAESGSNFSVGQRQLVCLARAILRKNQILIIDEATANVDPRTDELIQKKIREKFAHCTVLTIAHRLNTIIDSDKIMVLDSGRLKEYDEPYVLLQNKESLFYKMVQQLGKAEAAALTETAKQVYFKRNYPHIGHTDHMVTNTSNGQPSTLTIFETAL
The experiment in a line: TP_TRANSPORTER: inhibition of E217betaG uptake (E217betaG: 30 uM, Zaprinast: 100uM) in MRP4-expressing HEK293 cells. The class given is functional, cell-based. Also noted: scale not given: the % may be the effect or the level left. The conditions noted are these: probe E217betaG (30 uM), read-out: Activity.

Another data set concerns the target MRP5 (ABCC5) (Homo sapiens, UniProt O15440). The experiment in a line: TP_TRANSPORTER: inhibition of alaninyl-d4TMP uptake (alaninyl-d4TMP: 1 uM, Zaprinast: 100uM) in MRP5-expressing HEK293 cells. The class given is functional, cell-based. Details: scale not given: the % may be the effect or the level left. Conditions: probe alaninyl-d4TMP (1 uM), read-out: Activity.

In data set [1] the target is T2, ATP-binding cassette sub-family C member 4 (Homo sapiens, UniProt O15439).
T2 sequence (O15439 whole entry): T1 sequence (O15439 whole entry)
The class given is functional, cell-based, HEK293.

For data set [2], the target named is ATP-binding cassette sub-family C member 5 (Homo sapiens, UniProt O15440). In kind it is functional, cell-based, HEK293.
Sequence of ATP-binding cassette sub-family C member 5 (O15440 whole entry): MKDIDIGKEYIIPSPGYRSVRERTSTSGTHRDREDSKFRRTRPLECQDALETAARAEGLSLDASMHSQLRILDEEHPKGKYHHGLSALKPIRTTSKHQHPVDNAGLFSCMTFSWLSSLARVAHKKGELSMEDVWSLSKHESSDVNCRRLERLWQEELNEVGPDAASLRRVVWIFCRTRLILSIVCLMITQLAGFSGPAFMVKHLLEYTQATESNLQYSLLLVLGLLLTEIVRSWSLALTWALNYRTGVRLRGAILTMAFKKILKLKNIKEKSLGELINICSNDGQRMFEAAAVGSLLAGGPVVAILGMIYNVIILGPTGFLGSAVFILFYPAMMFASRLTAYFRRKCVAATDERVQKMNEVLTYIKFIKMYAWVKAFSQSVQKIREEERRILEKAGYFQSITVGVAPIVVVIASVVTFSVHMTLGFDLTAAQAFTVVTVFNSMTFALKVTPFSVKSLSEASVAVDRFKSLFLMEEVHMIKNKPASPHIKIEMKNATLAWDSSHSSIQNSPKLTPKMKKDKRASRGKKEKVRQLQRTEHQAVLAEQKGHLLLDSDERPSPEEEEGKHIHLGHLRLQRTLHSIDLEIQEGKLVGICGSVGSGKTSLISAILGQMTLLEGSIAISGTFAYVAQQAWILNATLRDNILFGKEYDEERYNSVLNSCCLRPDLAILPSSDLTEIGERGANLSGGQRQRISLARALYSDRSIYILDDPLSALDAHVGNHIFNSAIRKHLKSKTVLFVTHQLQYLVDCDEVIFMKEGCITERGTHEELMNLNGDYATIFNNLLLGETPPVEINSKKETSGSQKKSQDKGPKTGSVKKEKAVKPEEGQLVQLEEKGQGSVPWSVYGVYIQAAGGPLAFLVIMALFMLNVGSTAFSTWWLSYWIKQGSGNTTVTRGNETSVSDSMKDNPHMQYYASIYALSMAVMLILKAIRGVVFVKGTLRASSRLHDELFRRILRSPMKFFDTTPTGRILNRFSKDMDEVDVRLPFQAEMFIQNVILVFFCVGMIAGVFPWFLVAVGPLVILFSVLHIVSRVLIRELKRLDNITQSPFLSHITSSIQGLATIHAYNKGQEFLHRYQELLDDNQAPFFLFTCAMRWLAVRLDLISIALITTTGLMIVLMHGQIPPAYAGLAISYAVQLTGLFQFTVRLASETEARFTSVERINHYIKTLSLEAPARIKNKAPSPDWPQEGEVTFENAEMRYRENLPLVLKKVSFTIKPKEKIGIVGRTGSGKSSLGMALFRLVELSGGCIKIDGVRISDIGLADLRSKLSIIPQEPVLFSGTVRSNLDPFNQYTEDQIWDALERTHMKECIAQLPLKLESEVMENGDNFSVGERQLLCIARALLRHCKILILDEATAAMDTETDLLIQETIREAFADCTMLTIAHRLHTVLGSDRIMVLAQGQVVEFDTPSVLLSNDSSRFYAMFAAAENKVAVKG

Sequence of MRP5 (ABCC5) (O15440 whole entry): as above

Regarding `Nc1nc2c(ncn2[C@@H]2O[C@@H]3COP(=O)(O)O[C@H]3[C@H]2O)c(=O)[nH]1`, the activity at 100 µM on MRP4 (ABCC4) was determined as 48%; at MRP5 (ABCC5), 37%. Take `COc1cc(C(=O)OCCCN2CCCN(CCCOC(=O)c3cc(OC)c(OC)c(OC)c3)CC2)cc(OC)c1OC` [DILAZEP]: the IC50 in data set [1] is 20 µM; in data set [2], > 50 µM. In turn, `CN(C)C(=O)CCSC(SCCC(=O)O)c1cccc(/C=C/c2ccc3ccc(Cl)cc3n2)c1` (stereo not given) [MK-571] returned an IC50 in data set [2] of 40 µM. Turning to `O=[N+]([O-])c1ccc(CSc2ncnc3c2ncn3[C@@H]2O[C@H](CO)[C@@H](O)[C@H]2O)cc1` [NITROBENZYLMERCAPTOPURINE RIBONUCLEOSIDE], the IC50 in data set [1] was 75 µM.

Take `COc1cc2c(cc1OC)-c1c/c(=N\c3c(C)cc(C)cc3C)n(C)c(=O)n1CC2` [TREQUINSIN]: the figures for the IC50 in data set [1] and in data set [2] were 10 µM and 30 µM, respectively. As to `CCCOc1ccccc1-c1nc2nn[nH]c2c(=O)[nH]1` [ZAPRINAST], the figures for the activity at 100 µM on MRP4 (ABCC4) and at MRP5 (ABCC5) were 7% and 12%, respectively.
